PubChem BioAssay (NCI)
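Assay format: 96-well plates, 48-hour exposure. The concentration for 50% growth inhibition is given as GI50. TGI: total growth inhibition.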

Key:
Assay in all cases: NCI-60 cell line screen, 48 h
HOP-92 NSCLC = system: HOP-92 NSCLC
IGROV1 ovarian = system: IGROV1 ovarian
MALME-3M melanoma = system: MALME-3M melanoma
SK-MEL-28 melanoma = system: SK-MEL-28 melanoma
LOX IMVI melanoma = system: LOX IMVI melanoma
SW-620 colon = system: SW-620 colon
HCT-116 colon = system: HCT-116 colon
786-0 renal = system: 786-0 renal
OVCAR-4 ovarian = system: OVCAR-4 ovarian
SK-OV-3 ovarian = system: SK-OV-3 ovarian
EKVX NSCLC = system: EKVX NSCLC
OVCAR-8 ovarian = system: OVCAR-8 ovarian
HT29 colon = system: HT29 colon
HL-60(TB) leukemia = system: HL-60(TB) leukemia
SNB-19 CNS = system: SNB-19 CNS
M19-MEL melanoma = system: M19-MEL melanoma
M14 melanoma = system: M14 melanoma
TK-10 renal = system: TK-10 renal
A549 NSCLC = system: A549 NSCLC
A498 renal = system: A498 renal
KM20L2 colon = system: KM20L2 colon
SK-MEL-2 melanoma = system: SK-MEL-2 melanoma
SF-295 CNS = system: SF-295 CNS
NCI-H226 lung = system: NCI-H226 lung
UACC-257 melanoma = system: UACC-257 melanoma
DLD-1 colon = system: DLD-1 colon
SK-MEL-5 melanoma = system: SK-MEL-5 melanoma
CAKI-1 renal = system: CAKI-1 renal
NCI-H460 lung = system: NCI-H460 lung
HCC-2998 colon = system: HCC-2998 colon
SN12C renal = system: SN12C renal
OVCAR-3 ovarian = system: OVCAR-3 ovarian
K-562 leukemia = system: K-562 leukemia
CCRF-CEM leukemia = system: CCRF-CEM leukemia
HOP-62 NSCLC = system: HOP-62 NSCLC
OVCAR-5 ovarian = system: OVCAR-5 ovarian
ACHN renal = system: ACHN renal
UACC-62 melanoma = system: UACC-62 melanoma
LXFL 529 NSCLC = system: LXFL 529 NSCLC
RXF 393 renal = system: RXF 393 renal
NCI-H23 lung = system: NCI-H23 lung
U251 CNS = system: U251 CNS
MOLT-4 leukemia = system: MOLT-4 leukemia
NCI-H522 lung = system: NCI-H522 lung
SF-268 CNS = system: SF-268 CNS
HCT-15 colon = system: HCT-15 colon
KM12 colon = system: KM12 colon
UO-31 renal = system: UO-31 renal
SF-539 CNS = system: SF-539 CNS
COLO 205 colon = system: COLO 205 colon
RPMI-8226 leukemia = system: RPMI-8226 leukemia

CC(=O)[CH-]C(=O)c1ccccc1.CC(=O)[CH-]C(=O)c1ccccc1.CCN(CC)CC[O-].CCN(CC)CC[O-].Cl.[Hf+4]
GI50 (HOP-92 NSCLC): 58.9 µM
TGI (HOP-92 NSCLC): > 100 µM
GI50 (IGROV1 ovarian): > 100 µM
TGI (IGROV1 ovarian): > 100 µM
GI50 (MALME-3M melanoma): > 100 µM
TGI (MALME-3M melanoma): > 100 µM
GI50 (SK-MEL-28 melanoma): > 100 µM
TGI (SK-MEL-28 melanoma): > 100 µM
GI50 (LOX IMVI melanoma): 72.9 µM
TGI (LOX IMVI melanoma): > 100 µM
GI50 (SW-620 colon): > 100 µM
TGI (SW-620 colon): > 100 µM
GI50 (HCT-116 colon): > 100 µM
TGI (HCT-116 colon): > 100 µM
GI50 (786-0 renal): 88.8 µM
TGI (786-0 renal): > 100 µM
GI50 (OVCAR-4 ovarian): > 100 µM
TGI (OVCAR-4 ovarian): > 100 µM
GI50 (SK-OV-3 ovarian): > 100 µM
TGI (SK-OV-3 ovarian): > 100 µM
GI50 (EKVX NSCLC): 93.8 µM
TGI (EKVX NSCLC): > 100 µM
GI50 (OVCAR-8 ovarian): > 100 µM
TGI (OVCAR-8 ovarian): > 100 µM
GI50 (HT29 colon): > 100 µM
TGI (HT29 colon): > 100 µM
GI50 (HL-60(TB) leukemia): > 100 µM
TGI (HL-60(TB) leukemia): > 100 µM
GI50 (SNB-19 CNS): > 100 µM
TGI (SNB-19 CNS): > 100 µM
GI50 (M19-MEL melanoma): > 100 µM
TGI (M19-MEL melanoma): > 100 µM
GI50 (M14 melanoma): 92 µM
TGI (M14 melanoma): > 100 µM
GI50 (TK-10 renal): > 100 µM
TGI (TK-10 renal): > 100 µM
GI50 (A549 NSCLC): > 100 µM
TGI (A549 NSCLC): > 100 µM
GI50 (A498 renal): 32.2 µM
TGI (A498 renal): > 100 µM
GI50 (KM20L2 colon): > 100 µM
TGI (KM20L2 colon): > 100 µM
GI50 (SK-MEL-2 melanoma): > 100 µM
TGI (SK-MEL-2 melanoma): > 100 µM
GI50 (SF-295 CNS): 73.2 µM
TGI (SF-295 CNS): > 100 µM
GI50 (NCI-H226 lung): 66.1 µM
TGI (NCI-H226 lung): > 100 µM
GI50 (UACC-257 melanoma): > 100 µM
TGI (UACC-257 melanoma): > 100 µM
GI50 (DLD-1 colon): > 100 µM
TGI (DLD-1 colon): > 100 µM
GI50 (SK-MEL-5 melanoma): > 100 µM
TGI (SK-MEL-5 melanoma): > 100 µM
GI50 (CAKI-1 renal): > 100 µM
TGI (CAKI-1 renal): > 100 µM
GI50 (NCI-H460 lung): 36.4 µM
TGI (NCI-H460 lung): > 100 µM
GI50 (HCC-2998 colon): > 100 µM
TGI (HCC-2998 colon): > 100 µM
GI50 (SN12C renal): > 100 µM
TGI (SN12C renal): > 100 µM
GI50 (OVCAR-3 ovarian): > 100 µM
TGI (OVCAR-3 ovarian): > 100 µM
GI50 (K-562 leukemia): > 100 µM
TGI (K-562 leukemia): > 100 µM
GI50 (CCRF-CEM leukemia): 81.6 µM
TGI (CCRF-CEM leukemia): > 100 µM
GI50 (HOP-62 NSCLC): > 100 µM
TGI (HOP-62 NSCLC): > 100 µM
GI50 (OVCAR-5 ovarian): > 100 µM
TGI (OVCAR-5 ovarian): > 100 µM
GI50 (ACHN renal): 44.6 µM
TGI (ACHN renal): > 100 µM
GI50 (UACC-62 melanoma): > 100 µM
TGI (UACC-62 melanoma): > 100 µM
GI50 (LXFL 529 NSCLC): > 100 µM
TGI (LXFL 529 NSCLC): > 100 µM
GI50 (RXF 393 renal): 29.7 µM
TGI (RXF 393 renal): > 100 µM
GI50 (NCI-H23 lung): 19.7 µM
TGI (NCI-H23 lung): > 100 µM
GI50 (U251 CNS): > 100 µM
TGI (U251 CNS): > 100 µM
GI50 (MOLT-4 leukemia): 65 µM
TGI (MOLT-4 leukemia): > 100 µM
GI50 (NCI-H522 lung): 52.5 µM
TGI (NCI-H522 lung): > 100 µM
GI50 (SF-268 CNS): > 100 µM
TGI (SF-268 CNS): > 100 µM
GI50 (HCT-15 colon): > 100 µM
TGI (HCT-15 colon): > 100 µM
GI50 (KM12 colon): > 100 µM
TGI (KM12 colon): > 100 µM
GI50 (UO-31 renal): > 100 µM
TGI (UO-31 renal): > 100 µM
GI50 (SF-539 CNS): > 100 µM
TGI (SF-539 CNS): > 100 µM
GI50 (COLO 205 colon): > 100 µM
TGI (COLO 205 colon): > 100 µM
GI50 (RPMI-8226 leukemia): > 100 µM
TGI (RPMI-8226 leukemia): > 100 µM
